ChEMBL document CHEMBL1201862, “PubChem BioAssay data set” (2004)
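Compound exposure: 48 hours, 5 concentrations, 96-well plates. The concentration for 50% growth inhibition is given as GI50.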 Activity calls are given as the source filed them. Rule as the data show it: active = GI50 up to about 1.1 µM and inactive = higher.

Legend:
Assay in all cases: inhibition of tumour cell growth, NCI panel, 48 h
LXFL 529 = test system: LXFL 529
SF-295 = test system: SF-295
ACHN = test system: ACHN
A498 = test system: A498
HCT-15 = test system: HCT-15
DMS-114 = test system: DMS-114
OVCAR-3 = test system: OVCAR-3
SK-OV-3 = test system: SK-OV-3
SK-MEL-5 = test system: SK-MEL-5
SNB-75 = test system: SNB-75
UACC-62 = test system: UACC-62
HOP-62 = test system: HOP-62
XF498 = test system: XF498
A549 = test system: A549
OVCAR-8 = test system: OVCAR-8
TK-10 = test system: TK-10
RXF 393 = test system: RXF 393
M19-MEL = test system: M19-MEL
NCI-H522 = test system: NCI-H522
LOX IMVI = test system: LOX IMVI
UO-31 = test system: UO-31
OVCAR-4 = test system: OVCAR-4
M14 = test system: M14
NCI-H23 = test system: NCI-H23
RPMI-8226 = test system: RPMI-8226
DLD-1 = test system: DLD-1
CAKI-1 = test system: CAKI-1
U-251 = test system: U-251
IGROV-1 = test system: IGROV-1
SNB-78 = test system: SNB-78
COLO 205 = test system: COLO 205
K562 = test system: K562
HCC 2998 = test system: HCC 2998
SN12C = test system: SN12C
786-0 = test system: 786-0
KM12 = test system: KM12
UACC-257 = test system: UACC-257
SNB-19 = test system: SNB-19
MOLT-4 = test system: MOLT-4
HCT-116 = test system: HCT-116
KM-20L2 = test system: KM-20L2
SK-MEL-2 = test system: SK-MEL-2
EKVX = test system: EKVX
SW-620 = test system: SW-620
NCI-H460 = test system: NCI-H460
CCRF-CEM = test system: CCRF-CEM
HL-60 = test system: HL-60
SF-268 = test system: SF-268
SR = test system: SR
SK-MEL-28 = test system: SK-MEL-28
DMS-273 = test system: DMS-273
HOP-18 = test system: HOP-18
Malme-3M = test system: Malme-3M
SF-539 = test system: SF-539
OVCAR-5 = test system: OVCAR-5
NCI-H226 = test system: NCI-H226
HT-29 = test system: HT-29

## CC1(C)CCOC(Sc2ccccc2)C1 (stereo not given)
LXFL 529
  GI50: > 100 µM (inactive)
SF-295
  GI50: 66.2 µM (inactive)
ACHN
  GI50: 63.7 µM (inactive)
A498
  GI50: 67.3 µM (inactive)
HCT-15
  GI50: 50.6 µM
DMS-114
  GI50: 21.3 µM (inactive)
OVCAR-3
  GI50: 87.1 µM (inactive)
SK-OV-3
  GI50: > 100 µM (inactive)
SK-MEL-5
  GI50: 15 µM (inactive)
SNB-75
  GI50: 53.2 µM (inactive)
UACC-62
  GI50: 38.5 µM (inactive)
HOP-62
  GI50: > 100 µM (inactive)
XF498
  GI50: > 100 µM (inactive)
A549
  GI50: 24.3 µM (inactive)
OVCAR-8
  GI50: > 100 µM (inactive)
TK-10
  GI50: > 100 µM (inactive)
RXF 393
  GI50: 32.1 µM (inactive)
M19-MEL
  GI50: 30.3 µM (inactive)
NCI-H522
  GI50: 18.8 µM (inactive)
LOX IMVI
  GI50: 91.4 µM (inactive)
UO-31
  GI50: 80.9 µM (inactive)
OVCAR-4
  GI50: 52.8 µM (inactive)
M14
  GI50: 53.2 µM (inactive)
NCI-H23
  GI50: 10.8 µM (inactive)
RPMI-8226
  GI50: 18.3 µM (inactive)
DLD-1
  GI50: > 100 µM (inactive)
CAKI-1
  GI50: 96.8 µM (inactive)
U-251
  GI50: 18.7 µM (inactive)
IGROV-1
  GI50: > 100 µM (inactive)
SNB-78
  GI50: > 100 µM (inactive)
COLO 205
  GI50: 52.2 µM (inactive)
K562
  GI50: 21.9 µM (inactive)
HCC 2998
  GI50: > 100 µM (inactive)
SN12C
  GI50: > 100 µM (inactive)
786-0
  GI50: > 100 µM (inactive)
KM12
  GI50: 76.6 µM (inactive)
UACC-257
  GI50: 35.2 µM (inactive)
SNB-19
  GI50: > 100 µM (inactive)
MOLT-4
  GI50: 23.2 µM (inactive)
HCT-116
  GI50: 60.4 µM (inactive)
KM-20L2
  GI50: 47.4 µM (inactive)
SK-MEL-2
  GI50: 30.3 µM (inactive)
EKVX
  GI50: > 100 µM (inactive)
SW-620
  GI50: > 100 µM (inactive)
NCI-H460
  GI50: 84.9 µM (inactive)
CCRF-CEM
  GI50: 32.4 µM (inactive)
HL-60
  GI50: 10.5 µM (inactive)
SF-268
  GI50: > 100 µM (inactive)
SR
  GI50: 39.6 µM (inactive)
SK-MEL-28
  GI50: > 100 µM (inactive)
DMS-273
  GI50: 28.2 µM (inactive)

## CCOC(=O)C(C)(C)Oc1ccc2c(=O)cc(-c3ccccc3)oc2c1
HOP-18
  GI50: 22.8 µM (inactive)
LXFL 529
  GI50: 19 µM (inactive)
SF-295
  GI50: 26.5 µM (inactive)
ACHN
  GI50: 54.7 µM (inactive)
A498
  GI50: > 100 µM (inactive)
HCT-15
  GI50: 20 µM
DMS-114
  GI50: 17.9 µM (inactive)
OVCAR-3
  GI50: 19.5 µM (inactive)
SK-OV-3
  GI50: > 100 µM (inactive)
SK-MEL-5
  GI50: 14.8 µM (inactive)
SNB-75
  GI50: 19.1 µM (inactive)
UACC-62
  GI50: 18.2 µM (inactive)
HOP-62
  GI50: 18.5 µM (inactive)
Malme-3M
  GI50: 22.9 µM (inactive)
A549
  GI50: 23.1 µM (inactive)
OVCAR-8
  GI50: 23 µM (inactive)
TK-10
  GI50: > 100 µM (inactive)
RXF 393
  GI50: 21.2 µM (inactive)
M19-MEL
  GI50: 20.7 µM (inactive)
NCI-H522
  GI50: 13.9 µM (inactive)
LOX IMVI
  GI50: 17.5 µM (inactive)
UO-31
  GI50: 48.6 µM (inactive)
M14
  GI50: 19.5 µM (inactive)
NCI-H23
  GI50: 18.6 µM (inactive)
RPMI-8226
  GI50: 14.1 µM (inactive)
U-251
  GI50: 18.2 µM (inactive)
IGROV-1
  GI50: 29.5 µM (inactive)
SNB-78
  GI50: 26.7 µM (inactive)
COLO 205
  GI50: 19.6 µM (inactive)
K562
  GI50: 13 µM (inactive)
HCC 2998
  GI50: > 100 µM (inactive)
SN12C
  GI50: 32.1 µM (inactive)
786-0
  GI50: 16.3 µM (inactive)
KM12
  GI50: 18.9 µM (inactive)
UACC-257
  GI50: 17.4 µM (inactive)
SNB-19
  GI50: 18.8 µM (inactive)
SF-539
  GI50: 20.2 µM (inactive)
MOLT-4
  GI50: 13.8 µM (inactive)
HCT-116
  GI50: 17.3 µM (inactive)
KM-20L2
  GI50: 24.2 µM (inactive)
SK-MEL-2
  GI50: 16.9 µM (inactive)
EKVX
  GI50: 31.9 µM (inactive)
SW-620
  GI50: 22.8 µM (inactive)
NCI-H460
  GI50: 27.7 µM (inactive)
CCRF-CEM
  GI50: 18 µM (inactive)
OVCAR-5
  GI50: > 100 µM (inactive)
HL-60
  GI50: 14.1 µM (inactive)
SF-268
  GI50: 22.3 µM (inactive)
NCI-H226
  GI50: 22.8 µM (inactive)
SK-MEL-28
  GI50: 16.7 µM (inactive)

## CN(C)c1ccc(/C=C/C=C\c2cc(/C=C/C=C/c3ccc(N(C)C)cc3)[s+]c3ccccc23)cc1.[O-][Cl+3]([O-])([O-])[O-]
LXFL 529
  GI50: 8.26 µM (inactive)
SF-295
  GI50: > 100 µM (inactive)
A498
  GI50: > 100 µM (inactive)
HCT-15
  GI50: 80.7 µM
DMS-114
  GI50: 11.1 µM (inactive)
OVCAR-3
  GI50: 31.8 µM (inactive)
SK-OV-3
  GI50: 43.7 µM (inactive)
SK-MEL-5
  GI50: 43.8 µM (inactive)
SNB-75
  GI50: > 100 µM (inactive)
UACC-62
  GI50: 28.2 µM (inactive)
HT-29
  GI50: > 100 µM (inactive)
HOP-62
  GI50: > 100 µM (inactive)
Malme-3M
  GI50: 24.4 µM (inactive)
A549
  GI50: > 100 µM (inactive)
OVCAR-8
  GI50: 57.9 µM (inactive)
TK-10
  GI50: > 100 µM (inactive)
RXF 393
  GI50: 13.1 µM (inactive)
M19-MEL
  GI50: 15.5 µM (inactive)
NCI-H522
  GI50: 10 µM (inactive)
LOX IMVI
  GI50: 20.1 µM (inactive)
UO-31
  GI50: > 100 µM (inactive)
OVCAR-4
  GI50: 10 µM (inactive)
M14
  GI50: 14.5 µM (inactive)
NCI-H23
  GI50: 10 µM (inactive)
RPMI-8226
  GI50: 55.3 µM (inactive)
CAKI-1
  GI50: 10 µM (inactive)
U-251
  GI50: 10 µM (inactive)
SNB-78
  GI50: 51.4 µM (inactive)
COLO 205
  GI50: 29.3 µM (inactive)
K562
  GI50: > 100 µM (inactive)
SN12C
  GI50: > 100 µM (inactive)
786-0
  GI50: 90.6 µM (inactive)
KM12
  GI50: > 100 µM (inactive)
UACC-257
  GI50: 59.4 µM (inactive)
SNB-19
  GI50: > 100 µM (inactive)
SF-539
  GI50: > 100 µM (inactive)
MOLT-4
  GI50: > 100 µM (inactive)
HCT-116
  GI50: 78.5 µM (inactive)
KM-20L2
  GI50: > 100 µM (inactive)
SK-MEL-2
  GI50: 45.2 µM (inactive)
EKVX
  GI50: > 100 µM (inactive)
SW-620
  GI50: 63.4 µM (inactive)
NCI-H460
  GI50: > 100 µM (inactive)
OVCAR-5
  GI50: > 100 µM (inactive)
HL-60
  GI50: 4.53 µM (inactive)
SF-268
  GI50: > 100 µM (inactive)
NCI-H226
  GI50: > 100 µM (inactive)
SK-MEL-28
  GI50: 14.2 µM (inactive)
DMS-273
  GI50: 46.1 µM (inactive)
